Structures are written as SMILES.

The values that follow come from patent US20230322767A1, “ARYL SUBSTITUTED PYRROLO-PYRIDINONES AND THERAPEUTIC USES THEREOF” (Bayer Aktiengesellschaft, priority 2020, published 2023).

What all share (format): biochemical
For experiment [1], the target named is CSNK1D (Homo sapiens (Human), UniProt P48730). In words: CSNK1D Assay (ADP-Glo, 1 μM ATP). The conditions noted are these: median, read-out: CSNK1D IC50 [mol/l] (median). An outline of the steps:
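Enzyme preincubated with compound 15 min at 22° C in 50 mM HEPES pH 7.5 buffer with 10 mM MgCl2, 1 mM DTT; kinase reaction run at 1 μM ATP with biotinylated peptide substrate. ADP formed was detected by ADP-Glo luminescence as the measure of activity.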

The target in experiment [2] is CSNK1A1 (Homo sapiens (Human), UniProt P48729). In words: CSNK1A1 Assay 2 (ADP-Glo, 1 μM ATP). The settings on record: median, read-out: CSNK1A1 Assay 2 IC50 [mol/l] (median). In a few lines: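 Enzyme (~0.0375 ng/μL) preincubated 15 min at 22° C with compound in HEPES pH 7.5 buffer, then reacted with 1 μM ATP and biotin-Ahx-KRRRAL-pS-VASLPGL peptide. ADP product measured by ADP-Glo luminescence after 1 h ATP depletion and 1 h detection at 22° C.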
Chain of CSNK1A1 (P48729 whole entry): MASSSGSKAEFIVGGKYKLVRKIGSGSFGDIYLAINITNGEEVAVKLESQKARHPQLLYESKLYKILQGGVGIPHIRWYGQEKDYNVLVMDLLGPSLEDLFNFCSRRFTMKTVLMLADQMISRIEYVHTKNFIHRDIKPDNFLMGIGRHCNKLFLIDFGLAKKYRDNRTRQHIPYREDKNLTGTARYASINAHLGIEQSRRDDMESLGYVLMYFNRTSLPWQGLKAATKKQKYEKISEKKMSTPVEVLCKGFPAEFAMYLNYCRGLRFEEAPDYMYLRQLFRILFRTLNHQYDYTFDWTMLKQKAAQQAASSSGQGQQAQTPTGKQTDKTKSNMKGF

For experiment [3], the target named is wild-type Epidermal Growth Factor Receptor (EGFR) (Homo sapiens (Human), UniProt P00533). In words: WT-EGFR Kinase Assay (TR-FRET, 2 mM ATP). The settings on record: EGFR Wildtyp 2 mM ATP IC50 [mol/l] (median), median or individual measurements. In a few lines:
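GST-tagged human EGFR (R669–A1210, Sf9-expressed) preincubated 15 min at 22° C with compound in pH 7.0 Hepes/MgCl2 buffer, then reacted at 2 mM ATP with a biotinylated peptide substrate. Phosphorylation detected by TR-FRET (streptavidin-XL665, Tb-cryptate anti-phosphotyrosine) as the 665/620 nm emission ratio.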
On the technique in general: TR-FRET usually uses a lanthanide donor and a delayed reading to cut background.

Chain of wild-type Epidermal Growth Factor Receptor (EGFR) (P00533 669-1210): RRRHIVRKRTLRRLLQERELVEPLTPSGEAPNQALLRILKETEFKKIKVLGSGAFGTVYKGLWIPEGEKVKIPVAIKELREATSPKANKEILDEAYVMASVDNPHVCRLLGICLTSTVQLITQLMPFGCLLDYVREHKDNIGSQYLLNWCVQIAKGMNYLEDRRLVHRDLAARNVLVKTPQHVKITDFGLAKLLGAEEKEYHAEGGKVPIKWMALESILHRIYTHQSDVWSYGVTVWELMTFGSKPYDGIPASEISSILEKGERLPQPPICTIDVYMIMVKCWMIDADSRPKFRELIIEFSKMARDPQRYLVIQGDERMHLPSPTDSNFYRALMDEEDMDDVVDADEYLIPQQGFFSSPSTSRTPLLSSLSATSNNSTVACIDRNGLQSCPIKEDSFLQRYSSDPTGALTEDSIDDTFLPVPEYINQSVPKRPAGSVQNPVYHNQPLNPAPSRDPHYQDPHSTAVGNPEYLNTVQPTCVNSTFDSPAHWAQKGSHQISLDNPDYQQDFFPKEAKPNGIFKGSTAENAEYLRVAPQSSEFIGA
Chain of CSNK1D (P48730 whole entry): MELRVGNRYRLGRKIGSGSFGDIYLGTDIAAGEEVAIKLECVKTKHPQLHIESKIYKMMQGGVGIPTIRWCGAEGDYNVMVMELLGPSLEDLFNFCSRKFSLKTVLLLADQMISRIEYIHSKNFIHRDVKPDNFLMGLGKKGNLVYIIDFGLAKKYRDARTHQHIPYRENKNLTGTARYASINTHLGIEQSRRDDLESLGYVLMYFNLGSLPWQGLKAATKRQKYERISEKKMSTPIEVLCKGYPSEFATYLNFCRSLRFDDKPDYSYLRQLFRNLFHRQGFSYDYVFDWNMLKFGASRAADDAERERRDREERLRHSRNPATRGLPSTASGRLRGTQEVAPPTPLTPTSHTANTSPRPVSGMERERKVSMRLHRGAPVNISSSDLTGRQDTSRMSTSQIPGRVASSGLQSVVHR

Consider `CC(C(=O)Nc1cc(-c2[nH]c3ccn(C)c(=O)c3c2-c2cc(F)ccc2C#N)ccn1)c1ccc(F)cc1` (racemic) [Example 127, N-{4-[3-(2-cyano-5-fluorophenyl)-5-methyl-4-oxo-4,5-dihydro-1H-pyrrolo[3,2-c]pyridin-2-yl]pyridin-2-yl}-2-(4-fluorophenyl)propanamide], for which the figures for the IC50 in experiment [1], in experiment [2] and in experiment [3] were 33 nM, 33 nM and more than 20000 nM, respectively.
As for `CN1CCc2[nH]c(-c3ccnc(NC(=O)C(CC(F)F)c4ccc(F)cc4)c3)c(-c3cc(F)ccc3C#N)c2C1=O` (racemic) [Example 128, N-{4-[3-(2-cyano-5-fluorophenyl)-5-methyl-4-oxo-4,5,6,7-tetrahydro-1H-pyrrolo[3,2-c]pyridin-2-yl]pyridin-2-yl}-4,4-difluoro-2-(4-fluorophenyl)butanamide], the figures for the IC50 in experiment [1], in experiment [2] and in experiment [3] were 12 nM, 14 nM and more than 20000 nM, respectively.
The like results for `Cc1ncc(-c2c(-c3ccnc(NC(=O)C(CC(F)F)c4ccc(F)cc4)c3)[nH]c3c2C(=O)N(C)CC3)s1` (racemic) [Example 129, 4,4-difluoro-2-(4-fluorophenyl)-N-{4-[5-methyl-3-(2-methyl-1,3-thiazol-5-yl)-4-oxo-4,5,6,7-tetrahydro-1H-pyrrolo[3,2-c]pyridin-2-yl]pyridin-2-yl}butanamide] were, in that order, 13 nM, 15 nM and more than 20000 nM.
The like results for `CC(C(=O)Nc1cc(-c2[nH]c3ccn(C)c(=O)c3c2-c2cccs2)ccn1)c1ccc(F)cc1` (racemic) [Example 130, 2-(4-fluorophenyl)-N-{4-[5-methyl-4-oxo-3-(2-thienyl)-4,5-dihydro-1H-pyrrolo[3,2-c]pyridin-2-yl]pyridin-2-yl}propanamide] were, in that order, 3.9 nM, 2.4 nM and more than 20000 nM.
The corresponding values for `CC(C(=O)Nc1cc(-c2[nH]c3ccn(C)c(=O)c3c2-c2ccsc2)ccn1)c1ccc(F)cc1` (racemic) [Example 131, 2-(4-fluorophenyl)-N-{4-[5-methyl-4-oxo-3-(3-thienyl)-4,5-dihydro-1H-pyrrolo[3,2-c]pyridin-2-yl]pyridin-2-yl}propanamide] are 10 nM, 7 nM and more than 20000 nM.
Turning to `Cc1c(-c2ccnc(NC(=O)C(C)c3ccc(F)cc3)c2)[nH]c2ccn(C)c(=O)c12` (racemic) [Example 132, N-[4-(3,5-dimethyl-4-oxo-4,5-dihydro-1H-pyrrolo[3,2-c]pyridin-2-yl)pyridin-2-yl]-2-(4-fluorophenyl)propanamide], the IC50 in experiment [1] is 11 nM; in experiment [2], 6.3 nM; in experiment [3] it was more than 20000 nM.
Turning to `Cn1ccc2[nH]c(-c3ccnc(NC(=O)C(CC(F)F)c4ccc(F)cc4)c3)c(-c3ccc(Cl)s3)c2c1=O` (racemic) [Example 133, N-{4-[3-(5-chloro-2-thienyl)-5-methyl-4-oxo-4,5-dihydro-1H-pyrrolo[3,2-c]pyridin-2-yl]pyridin-2-yl}-4,4-difluoro-2-(4-fluorophenyl)butanamide], the IC50 in experiment [1] was 4.8 nM; in experiment [2], 2.3 nM; in experiment [3], more than 20000 nM.
The corresponding values for `O=C(Nc1cc(-c2[nH]c3ccn(C4CC4)c(=O)c3c2-c2ccc(F)cc2)ccn1)C(CC(F)F)c1ccc(F)cc1` (racemic) [Example 134, N-{4-[5-cyclopropyl-3-(4-fluorophenyl)-4-oxo-4,5-dihydro-1H-pyrrolo[3,2-c]pyridin-2-yl]pyridin-2-yl}-4,4-difluoro-2-(4-fluorophenyl)butanamide] are 7 nM, 5.5 nM and more than 20000 nM.
The corresponding values for `O=C(Nc1cc(-c2[nH]c3ccn(C4CC4)c(=O)c3c2-c2ccccc2)ccn1)C(CC(F)F)c1ccc(F)cc1` (racemic) [Example 137, N-[4-(5-cyclopropyl-4-oxo-3-phenyl-4,5-dihydro-1H-pyrrolo[3,2-c]pyridin-2-yl)pyridin-2-yl]-4,4-difluoro-2-(4-fluorophenyl)butanamide] are 3 nM, 2.6 nM and more than 20000 nM.
On to `CN1CCc2[nH]c(-c3ccnc(NC(=O)C(CC(F)F)c4ccc(F)cc4)c3)c(-c3cscn3)c2C1=O` (racemic) [Example 138, 4,4-difluoro-2-(4-fluorophenyl)-N-{4-[5-methyl-4-oxo-3-(1,3-thiazol-4-yl)-4,5,6,7-tetrahydro-1H-pyrrolo[3,2-c]pyridin-2-yl]pyridin-2-yl}butanamide], for which the IC50 was 8.8 nM in experiment [1], 8.9 nM in experiment [2] and more than 20000 nM in experiment [3].
Take `CN1CCc2[nH]c(-c3ccnc(NC(=O)C(CC(F)F)c4ccc(F)cc4)c3)c(-c3ccc(F)cc3)c2C1=O` (racemic) [Example 139, 4,4-difluoro-2-(4-fluorophenyl)-N-{4-[3-(4-fluorophenyl)-5-methyl-4-oxo-4,5,6,7-tetrahydro-1H-pyrrolo[3,2-c]pyridin-2-yl]pyridin-2-yl}butanamide]: the IC50 was 5.5 nM in experiment [1], 4.2 nM in experiment [2] and more than 20000 nM in experiment [3].
The like results for `CC(C(=O)Nc1cc(-c2[nH]c3ccn(C)c(=O)c3c2-c2ccc(F)nc2)ccn1)c1ccc(F)cc1` (racemic) [Example 145, 2-(4-fluorophenyl)-N-{4-[3-(6-fluoropyridin-3-yl)-5-methyl-4-oxo-4,5-dihydro-1H-pyrrolo[3,2-c]pyridin-2-yl]pyridin-2-yl}propanamide] were, in that order, 10 nM, 9.7 nM and more than 20000 nM.
With `Cn1cc(CC(F)F)c2[nH]c(-c3ccnc(NC(=O)C(CC(F)F)c4ccc(F)cc4)c3)c(-c3ccccc3)c2c1=O` (racemic) [Example 147, (rac)-N-{4-[7-(2,2-difluoroethyl)-5-methyl-4-oxo-3-phenyl-4,5-dihydro-1H-pyrrolo[3,2-c]pyridin-2-yl]pyridin-2-yl}-4,4-difluoro-2-(4-fluorophenyl)butanamide], the values for the IC50 in experiment [1], in experiment [2] and in experiment [3] were 2.9 nM, 4.3 nM and more than 20000 nM, respectively.
The like results for `CN1CC(C)(C)c2[nH]c(-c3ccnc(NC(=O)C(CC(F)F)c4ccc(F)cc4)c3)c(-c3ccccc3)c2C1=O` (racemic) [Example 150, (rac)-4,4-difluoro-2-(4-fluorophenyl)-N-[4-(5,7,7-trimethyl-4-oxo-3-phenyl-4,5,6,7-tetrahydro-1H-pyrrolo[3,2-c]pyridin-2-yl)pyridin-2-yl]butanamide] were, in that order, 3.8 nM, 4.1 nM and more than 20000 nM.
In the case of `CC(C(=O)Nc1cc(-c2[nH]c3c(c2-c2ccccc2)C(=O)N(C)CC3)ccn1)c1ccncc1` (racemic) [Example 153, (Rac)-N-[4-(5-methyl-4-oxo-3-phenyl-4,5,6,7-tetrahydro-1H-pyrrolo[3,2-c]pyridin-2-yl)pyridin-2-yl]-2-(pyridin-4-yl)propanamide], the IC50 in experiment [1] was 2.4 nM; in experiment [2], 2 nM; in experiment [3] it was more than 20000 nM.
The like results for `O=C(Nc1cc(-c2[nH]c3c(c2-c2ccccc2)C(=O)N(C2CC2)CC3)ccn1)C(CC(F)F)c1ccc(F)cc1` (racemic) [Example 156, (2RS)—N-(4-(5-cyclopropyl-4-oxo-3-phenyl-4,5,6,7-tetrahydro-1H-pyrrolo[3,2-c]pyridin-2-yl)pyridin-2-yl)-4,4-difluoro-2-(4-fluorophenyl)butanamide] were, in that order, 3.1 nM, 2.3 nM and more than 20000 nM.
The corresponding values for `O=C(Nc1cc(-c2[nH]c3ccn(C4CC4)c(=O)c3c2-c2ccccn2)ccn1)C(CC(F)F)c1ccc(F)cc1` (racemic) [Example 160, (2RS)—N-{4-[5-cyclopropyl-4-oxo-3-(pyridin-2-yl)-4,5-dihydro-1H-pyrrolo[3,2-c]pyridin-2-yl]pyridin-2-yl}-4,4-difluoro-2-(4-fluorophenyl)butanamide] are 10 nM, 8.7 nM and more than 20000 nM.
The corresponding values for `O=C(Nc1cc(-c2[nH]c3c(Cl)cn(C4CC4)c(=O)c3c2-c2ccc(F)cc2)ccn1)C(CC(F)F)c1ccc(F)cc1` (racemic) [Example 161, (2RS)—N-{4-[7-chloro-5-cyclopropyl-3-(4-fluorophenyl)-4-oxo-4,5-dihydro-1H-pyrrolo[3,2-c]pyridin-2-yl]pyridin-2-yl}-4,4-difluoro-2-(4-fluorophenyl)butanamide] are 11 nM, 20 nM and more than 20000 nM.
`Cn1cc(CC(F)(F)F)c2[nH]c(-c3ccnc(NC(=O)C(CC(F)F)c4ccc(F)cc4)c3)c(-c3ccccn3)c2c1=O` (racemic) [Example 162, (2RS)-4,4-difluoro-2-(4-fluorophenyl)-N-{4-[5-methyl-4-oxo-3-(pyridin-2-yl)-7-(2,2,2-trifluoroethyl)-4,5-dihydro-1H-pyrrolo[3,2-c]pyridin-2-yl]pyridin-2-yl}butanamide]: the IC50 in experiment [1] was 12 nM; in experiment [2], 14 nM; in experiment [3], more than 20000 nM.
